Source: ChEMBL document CHEMBL1129202, “Palladium-catalysed synthesis of some biologically active 5, 6-disubstituted uracils” (Bioorg Med Chem Lett, 1996)

System: CCRF-CEM
Assay: In vitro cytotoxic activity against CCRF-CEM human lymphoblastoid cells in culture.
Assay type: functional, cell-based

Cc1ccc(C(=O)/C=C/c2nc(O)nc(O)c2I)cc1
IC50: 1400 nM

Cc1ccc(C(=O)/C=C/c2nc(O)nc(O)c2Cl)cc1
IC50: 12200 nM

COc1ccc(C(=O)/C=C/c2cc(O)nc(O)n2)cc1
IC50: 2200 nM

Cc1ccc(C(=O)/C=C/c2nc(O)nc(O)c2Br)cc1
IC50: 2600 nM

Cc1ccc(C(=O)/C=C/c2cc(O)nc(O)n2)cc1
IC50: 1800 nM
